Laboratory results from article PMC7056649 (Heliyon, 2020).

Experiments:
[1] = tested on: membrane-bound α-glucosidases on differentiated Caco-2 cells; experiment: Membrane bound α-glucosidase inhibitory activity in differentiated Caco-2 cells; format: cell-based, human; conditions: 25 mM maltose, 0.1-100 μg/ml, 4 h; comparison in words
[2] = biological target: Saccharomyces cerevisiae α-glucosidase (Saccharomyces cerevisiae, UniProt P53341); experiment: α-Glucosidase inhibitory activity and kinetic analysis; format: biochemical; conditions: for Ki: yeast α-glucosidase hydrolysis of PNPG; for Mode of Inhibition: PNPG substrate, determined by Lineweaver-Burk plots
Saccharomyces cerevisiae α-glucosidase, sequence (P53341 whole entry): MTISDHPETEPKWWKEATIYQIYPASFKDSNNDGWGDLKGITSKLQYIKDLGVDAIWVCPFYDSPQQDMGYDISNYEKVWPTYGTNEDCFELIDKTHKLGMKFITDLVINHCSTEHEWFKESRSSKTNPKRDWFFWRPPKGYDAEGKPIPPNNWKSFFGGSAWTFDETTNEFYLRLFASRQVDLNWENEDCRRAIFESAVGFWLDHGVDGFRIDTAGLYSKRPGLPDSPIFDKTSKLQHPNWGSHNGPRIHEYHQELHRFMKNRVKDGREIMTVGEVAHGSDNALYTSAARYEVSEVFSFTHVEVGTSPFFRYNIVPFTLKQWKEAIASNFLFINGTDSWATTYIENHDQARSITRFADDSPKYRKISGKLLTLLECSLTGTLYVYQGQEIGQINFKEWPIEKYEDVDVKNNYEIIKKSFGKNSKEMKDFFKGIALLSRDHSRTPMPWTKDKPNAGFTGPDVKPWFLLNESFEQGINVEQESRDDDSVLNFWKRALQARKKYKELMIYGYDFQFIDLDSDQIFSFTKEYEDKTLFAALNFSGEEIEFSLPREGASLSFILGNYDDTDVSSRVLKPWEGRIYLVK

[3] = biological target: T1, porcine pancreatic α-amylase (Sus scrofa, UniProt P00690); experiment: α-Amylase inhibitory activity; format: biochemical; conditions: up to 600 μg/mL
T1 sequence (P00690 16-511): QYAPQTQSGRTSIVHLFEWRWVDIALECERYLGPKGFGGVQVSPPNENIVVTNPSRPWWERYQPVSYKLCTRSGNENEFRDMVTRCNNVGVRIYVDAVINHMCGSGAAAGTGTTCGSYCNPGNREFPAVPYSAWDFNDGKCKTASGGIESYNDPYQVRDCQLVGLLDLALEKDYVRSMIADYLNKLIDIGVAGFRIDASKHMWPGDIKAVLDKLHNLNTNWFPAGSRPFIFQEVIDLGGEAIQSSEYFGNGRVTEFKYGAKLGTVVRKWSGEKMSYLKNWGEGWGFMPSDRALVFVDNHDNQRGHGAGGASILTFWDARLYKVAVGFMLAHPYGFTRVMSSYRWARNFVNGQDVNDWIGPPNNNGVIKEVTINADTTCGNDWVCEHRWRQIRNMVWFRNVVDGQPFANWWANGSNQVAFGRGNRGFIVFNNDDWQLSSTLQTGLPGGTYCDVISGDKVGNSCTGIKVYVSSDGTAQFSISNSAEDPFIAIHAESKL

Caco-2 cells = conditions: ref Ahn et al., 2017, Mei et al., 2012; cited from earlier work

Row | Compound | inhibition of maltose hydrolysis in differentiated Caco-2 cells [1] | IC50 ([2]; IC50, substrate PNPG) [µM] | Ki ([2]; Dixon plots, value in brackets) [µM] | Ki ([2]; determined by Dixon plots) [µM] | Mode of Inhibition [2] | Mode of Inhibition ([2]; listed as oxyresveratrol) | inhibition of α-amylase [3] | re-export rate from Caco-2 cells (Caco-2 cells)
1 | C[C@H]1O[C@H](O[C@H]2[C@H](O)[C@@H](O)[C@@H](O[C@H]3[C@H](O)[C@@H](O)C(O)O[C@@H]3CO)O[C@@H]2CO)[C@H](O)[C@@H](O)[C@@H]1N[C@H]1C=C(CO)[C@@H](O)[C@H](O)[C@H]1O (stereo partly drawn) [Acarbose, acarbose, reference compound] | far more susceptible to acarbose | – | – | – | – | – | – | –
2 | Oc1cc(O)cc(/C=C/c2ccc(O)cc2O)c1 [Oxyresveratrol, trans-3,5,2′,4′-tetrahydroxystilbene] | lesser potency compared to acarbose | 203 | 223 | 223 | Non-competitive | non-competitively | no detectable inhibition | high
